The values below are quoted from earlier work in US20090175934A1, “Extended Release Pharmaceutical Formulation of Venlafaxine and Method of Manufacturing the Same” (Jubilant Organosys Ltd., priority 2006, published 2009).

Where a name gives a salt, the structure may show the parent alone.

For series [1] the following is noted: compressed tablets, therapeutic dosing.
The test system of series [2] is patients. As to conditions: plural daily dosing regimen.

Turning to `COc1ccc(C(CN(C)C)C2(O)CCCCC2)cc1` (stereo not drawn) [Venlafaxine hydrochloride], the “time until sub-therapeutic plasma levels are approached following administration” value in series [1] is “about twelve hours”. Besides, in series [2], the patients experiencing nausea result was “about forty five percent” and the “patients in whom vomiting occurs” value is listed as “about seventeen percent”.
